According to article PMC11542830, “3-nitropyridine analogues as novel microtubule-targeting agents” (PLOS ONE, 2024):

Key:
Pharmacokinetics in rats = type: in vivo, Sprague-Dawley rats; details: rat
Protocol: The pharmacokinetic profile of 4AZA2891 was investigated in male Sprague-Dawley rats after intravenous and oral administration of a dose of 2 mg/kg and 20 mg/kg, respectively. The rats were purchased from Charles River Laboratories (Belgium) and 3 rats were included in each dosing route. 4AZA2891 was formulated either as a solution at 1 mg/ml in glucose 5% with 2 equivalents of H3PO4 for the IV dosing or as a solution at 4 mg/ml in water with 2 equivalents of H3PO4 for the oral dosing. Both formulations were heated for 1 hour at 80°C in order to obtain a clear solution. Serial venous blood samples, taken by eye puncture under isoflurane inhalation anesthesia, were collected in heparinized tubes. The plasma fraction was immediately separated by centrifugation 2 min at 13,000 g and stored at -80°C until analysis. Plasma concentrations were measured using liquid chromatography/mass spectrometry/mass spectrometry (LC/MS/MS).
Every plasma and tissue sample was spiked with internal standard followed by the addition of 4 volumes of methanol. The samples were kept for 30 min on ice prior to centrifugation 10 min at 12,000 RPM in order to remove precipitated proteins. The supernatant was analyzed for the presence of 4AZA2891 using LC/MS/MS (Finnigan LCQ advantage Max (ion trap) mass spectrometer with Surveyor HPLC System (Thermo Finnigan)).
As standard for the bioanalysis, 4AZA2891 was diluted stepwise. Each dilution was added to blank control plasma or to blank control tissue homogenate additionally spiked with internal standard, giving rise to standard curves from 5 to 5,000 ng/ml. The lower limit of quantification was 5 to 10 ng/ml depending on the tissues.
Non-compartmental pharmacokinetic analysis was performed on the plasma concentration-time data. PK Solutions 2.0 software (Summit Research Services) was used to calculate the PK parameters.

HT-29 xenograft = HT-29 xenograft tumor model; type: in vivo; details: for ratio of relative tumor volume of treated mice over control mice (T/C): end of the treatment period
Protocol: Seven-week-old NMRI nude male mice were obtained from Janvier Labs (France) and injected with 10^7 HT-29 cells intradermally on the flank. When tumors reached approximately 100 mm^3, mice were distributed into three groups of four to six mice to give the same average tumor size per group and randomly assigned a treatment condition. Mice were injected IV with 4AZA2891 at 15 mg/kg following a Q1D5x2W administration schedule or at 30 mg/kg following a Q2D3x2W administration schedule or with the vehicle (Q1D5x2W). 4AZA2891 was formulated before each injection at 3 mg/ml in 5% glucose with 2 equivalent H3PO4 and warmed at 80°C for 1 h to obtain a clear solution. Tumor volume was measured as (width^2 × length)/2 in mm^3 and weight gain/loss and survival were monitored. T/C ratio was calculated as the ratio of the relative tumor volume average. The health status and behaviour of the animals were assessed daily for well-being. At the end of the experiment (day 35 after treatment intiation)) or in the events of signs of distress, cachexia or excessive tumor growth, the mice were humanely sacrificed by CO2 inhalation followed by cervical dislocation.

Myelotoxicity in mice = type: in vivo; details: Balb/c mice
Protocol: Female Balb/c mice from Janvier Labs, 8–10 weeks old, were injected IV daily for 6 days with 4AZA2891 at 15 mg/kg or with the vehicle (4 mice per treatment group). The compound was formulated at 0.75 mg/ml in glucose 5% with 2 equivalents H3PO4 as described above. Mice were daily weighted and assessed clinically. On day 7, mice were exsanguinated by retro-orbital bleeding under anesthesia with avertin (given intraperitoneally); blood was collected in EDTA tubes and was subjected to an automated blood count (Sysmex XE 2100 Hematology Analyser, Sysmex Europe GmbH). Femurs were fixed in formaldehyde, decalcified, and paraffin embedded. Sections (4.5 μm) were stained with hematoxylin/eosin (H&E) for histopathological analysis at Novaxia (France).

EKVX = assay: NCI60 5-dose screen, EKVX; type: cell-based; details: Homo sapiens, non-small cell lung cancer, Fig 1D, read-out: Log10 GI50 (EKVX) (converted)
Protocol: (§1) The screening methodology used in the NCI60 Cell 5-Doses screen is described in detail at https://dtp.cancer.gov/discovery_development/nci-60/methodology.htm. Briefly, cells are seeded in 96 well plates at an appropriate density and incubated for 1 day. After 1 day, some of the plates are processed to determine a time zero density. To the remaining plates, compounds are added over a 5-log M concentration range (1 log dilutions from 10^-4M to 10^-8M). Plates are incubated for two additional days, then fixed and stained with sulforhodamine B. Growth inhibition is calculated relative to cells without drug treatment and the time zero control. The GI50 is the concentration of a compound that causes 50% growth inhibition, relative to the no drug control.

NCI-H226 = assay: NCI60 5-dose screen, NCI-H226; type: cell-based; details: Homo sapiens, non-small cell lung cancer, Fig 1D, read-out: Log10 GI50 (NCI-H226) (converted)
Protocol: as §1

MALME-3M = assay: NCI60 5-dose screen, MALME-3M; type: cell-based; details: Homo sapiens, melanoma, Fig 1D, read-out: Log10 GI50 (MALME-3M) (converted)
Protocol: as §1

UACC-257 = assay: NCI60 5-dose screen, UACC-257; type: cell-based; details: Homo sapiens, melanoma, Fig 1D, read-out: Log10 GI50 (UACC-257) (converted)
Protocol: as §1

OVCAR-4 = assay: NCI60 5-dose screen, OVCAR-4; type: cell-based; details: Homo sapiens, ovarian cancer, Fig 1D, read-out: Log10 GI50 (OVCAR-4) (converted)
Protocol: as §1

NCI/ADR-RES = assay: NCI60 5-dose screen, NCI/ADR-RES; type: cell-based; details: Homo sapiens, ovarian cancer, Fig 1D, read-out: Log10 GI50 (NCI/ADR-RES) (converted)
Protocol: as §1

RXF 393 = assay: NCI60 5-dose screen, RXF 393; type: cell-based; details: Homo sapiens, renal cancer, Fig 1D, read-out: Log10 GI50 (RXF 393) (converted)
Protocol: as §1

[1] = 15 mg/kg IV once daily for 6 days, blood on day 7

Work on `Cc1cc(C)cc(Nc2ccc([N+](=O)[O-])c(NCCN3CCOCC3)n2)c1` [Compound 4AZA2891, 6-(3,5-dimethylanilino)-2-(2-morpholinoethylamino)-3-nitropyridine] yielded an AUC(0-t) (Pharmacokinetics in rats; male, Sprague-Dawley, plasma, IV 2 mg/kg, read-out: AUClast in plasma) of 253 ng·h/mL, a half-life (Pharmacokinetics in rats; male, Sprague-Dawley, plasma, IV 2 mg/kg, read-out: elimination half-life (converted)) of 48 min and a clearance (Pharmacokinetics in rats; male, Sprague-Dawley, plasma, IV 2 mg/kg, read-out: systemic clearance (converted)) of 132 mL/min/kg. For the same compound, the Vd (Pharmacokinetics in rats; male, Sprague-Dawley, plasma, IV 2 mg/kg, read-out: volume of distribution at steady state) was 7.4 L/kg, the “time detected in the plasma” value (Pharmacokinetics in rats; IV 2 mg/kg, lower limit of quantification 10 ng/ml) was “up to 3 hours” and the oral bioavailability (Pharmacokinetics in rats; oral 20 mg/kg) was “not orally bioavailable”. For the same compound, the “plasma levels after oral dose” value (Pharmacokinetics in rats; oral 20 mg/kg, all time points) was “below the limit of quantification”, the “ratio of relative tumor volume of treated mice over control mice (T/C)” value (HT-29 xenograft; 15 mg/kg IV Q1D5x2W) was 42% and the “ratio of relative tumor volume of treated mice over control mice (T/C)” value (HT-29 xenograft; 30 mg/kg IV Q2D3x2W) was 34%. For the same compound, the tumor growth inhibition (HT-29 xenograft; both dosing regimen (15 mg/kg Q1D5x2W, 30 mg/kg Q2D3x2W), IV) was “significant tumor growth inhibition”, the “tolerability (body weight evolution)” value (HT-29 xenograft; both dosing regimens, IV, tumor bearing mice) was “well tolerated” and the Hb (Myelotoxicity in mice; [1]) was 14.7 ± 2.2 g/dL. The Platelets (Myelotoxicity in mice; [1]) was 234 ± 84 10^9/l, the RBC (Myelotoxicity in mice; [1]) was 9.4 ± 1.6 10^12/l and the WBC (Myelotoxicity in mice; [1]) was 5.2 ± 2.6 10^9/l. For the same compound, the “histologic examination of the bone marrow” value (Myelotoxicity in mice; 15 mg/kg/d IV during 6 days) was “normal”, the “tolerability (body weight change, anemia, leukocytopenia, thrombocytopenia)” value (Myelotoxicity in mice; 15 mg/kg/d IV during 6 days) was “well tolerated” and the GI50 (EKVX) was 44.7 nM. The GI50 (NCI-H226) was 31.6 nM, the GI50 (MALME-3M) was 15800 nM and the GI50 (UACC-257) was greater than 100000 nM. The GI50 (OVCAR-4) was less than 10 nM, the GI50 (NCI/ADR-RES) was less than 10 nM and the GI50 (RXF 393) was 38.9 nM.
